Experimental findings from PMC6470642, “Phenalenones from a Marine-Derived Fungus Penicillium sp” (Marine Drugs, 2019) are described below.

Broadly, the IC50 is the concentration that inhibits the measured activity by half.

One series relates to HUVECs. Kind of series: VEGF-induced tube formation assay (angiogenesis). The conditions noted are these: VEGF 50 ng/mL, 6 h, read-out: IC50, inhibition of tube formation. The class given is cell-based, human. As to the method:
Human umbilical vascular endothelial cells (HUVECs) were purchased from the American Type Culture Collection (ATCC, Rockville, MD, USA), and cultured in EGM-2 (Lonza, Walkerswille, MD, USA) supplemented with 10% FBS and antibiotics-antimycotics (PSF). The cells were maintained at 37 °C under a humidified atmosphere containing 5% CO2. A 96-well plate was coated with Matrigel (Corning) for 30 min at 37 °C under a humidified atmosphere containing 5% CO2. HUVECs (1.8 × 10^4 cells/well) were mixed with the test compounds in 0.5% FBS EBM-2 medium with VEGF (50 ng/mL) or 0.5% FBS EBM-2 medium only for the VEGF negative control. The cells were incubated for 6 h and photographed using an inverted microscope (Olympus Optical Co. Ltd., Tokyo, Japan). Images were quantified with an angiogenesis analyzer using ImageJ software. Tube formation activity was calculated using the following formula: [(Total segment # (tested compound) − Total segment # (VEGF−)]/[Total segment # (VEGF+) − Total segment # (VEGF−)] × 100 (# stands for tubule segment number). The IC50 values were calculated through nonlinear regression analysis using TableCurve 2-D v5.01 (Systat Software Inc., San Jose, CA, USA). Cell viabilities were evaluated with the MTT assay. HUVECs (0.8 × 10^4 cells/well) were seeded into a 96-well plate and indicated for 1 day. The culture medium was replaced with serum-free medium, and the cells were incubated overnight. After starvation, the cells were treated with the test compounds and VEGF (50 ng/mL) in 2% FBS EBM-2 medium. Cells were incubated for a further 24 h, and MTT solution (final concentration of 500 μg/mL) was added to the cells to measure the cell viability. The formazan products were dissolved in DMSO. The absorbance of each well was measured at 570 nm using a VersaMax ELISA microplate reader (Molecular Devices, Sunnyvale, CA, USA).
Figure S55. Angiogenesis activities of herqueinone compounds purified from Penicillium herquei. Effects of 6 on VEGF-induced tube formation and cell viability. Tube formation activity was measured after cells were incubated with indicated concentrations of 6 on matrigel-coated 96wells for 6 h in the presence of VEGF (50 ng/mL) compared to control in the absence of VEGF. Cell viability was measured by MTT assay after treat with indicated concentrations of 6 in the presence of VEGF (50 ng/mL) for 24 h. The values are expressed as the means ± SD of triplicate tests. * p ≤ 0.05, ** p ≤ 0.01 and *** p ≤ 0.001.

A short description of another series: cytotoxicity assay, K562. Format: cell-based. The following applies: human, K562 cells. As to the method: (§1) The cytotoxicity assay was performed in accordance with the published protocols. The antimicrobial assay was performed according to the method described previously.
The nature of a further series: cytotoxicity assay, A549. Format: cell-based. The following applies: human, A549 cells. As to the method: as §1
In a further series the test system is RAW 264.7 cells. The series is described as follows: iNOS assay: inhibition of LPS-stimulated NO production (Griess reaction). Format: cell-based, mouse. The conditions noted are these: 18 h. As for the experimental part: Mouse macrophage RAW 264.7 cells obtained from the American Type Culture Collection (ATCC, Rockville, MD, USA) were cultured in Dulbecco’s modified Eagle’s medium (DMEM) supplemented with 10% heat-inactivated fetal bovine serum (FBS) with antibiotics-antimycotics (PSF; 100 units/mL penicillin G sodium, […] streptomycin, and 250 ng/mL amphotericin B). The cells were seeded in 24-well plates (2 × 10^5 cells/mL). The next day, the culture media was changed to 1% FBS-DMEM, and the samples were treated with the test compounds. After pretreatment with the drug for 1 h, 1 μg/mL lipopolysaccharides (LPS) was added to stimulate NO production. The cells were incubated for an additional 18 h, and the amount of NO produced in the supernatant was determined by Griess reaction. Then, the absorbance was measured at 540 nm, and the nitrite concentration was determined by comparison with a sodium nitrite standard curve. The percent inhibition was calculated using the following formula: [1 − (NO level of test samples/NO levels of vehicle-treated control)] × 100. The IC50 values were calculated through nonlinear regression analysis using TableCurve 2-D v5.01 (Systat Software Inc., San Jose, CA, USA). At the same time, MTT assays were also performed to test cell viability. MTT solution (final concentration of 500 μg/mL) was added to the cells, and they were incubated for 4 h at 37 °C. The culture media was removed, and the remaining dyes were dissolved in DMSO. The absorbance of each well was measured at 570 nm using a VersaMax ELISA microplate reader (Molecular Devices, Sunnyvale, CA, USA). The percent survival was determined by comparison with a control group (LPS+).
Figure S54. Inhibition of NO production of herqueinone compounds purified from Penicillium herquei. The effects of compounds on NO production in RAW 264.7 cells. (A) Cells were pre-treated with compounds (20 uM) and AMT (0.2 uM) for 1 h and LPS (1 ug/mL ) was added further incubated for 18 h . The amount of iNOS was examined by Griess reaction. (B) After iNOS level was measured, cell viability was tested using MTT assay. The values are expressed as the means ± SD of triplicate tests. (C) RAW 264.7 cells were pretreated with various concentrations of compound 7 and AMT (0.2 uM) for 1 h, and LPS (1 ug/mL) was added further incubated for 18 h. The amount of iNOS was examined b y Griess reaction. (D) Cell viability was tested by MTT assay. The values are expressed as the means ± SD of triplicate tests.

The test system of a further series is hBM-MSCs. Kind of series: adiponectin production assay during adipogenesis (ELISA). The class given is cell-based. The following applies: Homo sapiens. As to the method: Human bone marrow-mesenchymal stem cells (hBM-MSCs) were purchased from Lonza, Inc. (Walkersville, MD, USA) and cultured in low-glucose (1 g/L) DMEM supplemented with 10% FBS, penicillin-streptomycin, and Glutamax^TM (Invitrogen, Carlsbad, CA, USA). To induce adipogenesis, the cell growth medium was replaced with high-glucose (4.5 g/L) DMEM supplemented with 10% FBS, penicillin-streptomycin, 10 μg/mL insulin, 0.5 μM dexamethasone, and 0.5 mM 3-isobutyl-1-methylxanthine (IBMX) (IDX conditions). IBMX, pioglitazone, and aspirin were purchased from Sigma-Aldrich (St. Louis, MO, USA). hBM-MSCs were stained with 0.2% oil red O (ORO) reagent for 10 min at 24 °C, and then washed with H2O four times. Following a 10-min elution with isopropanol, the absorbance was measured at 500 nm using a spectrophotometer. To visualize the nucleus, the hBM-MSCs were counterstained with hematoxylin reagent for 2 min and then washed twice with H2O. The level of adipocyte differentiation was observed and counted using an inverted phase microscope. A Quantikine immunoassay kit (R&D Systems, Minneapolis, MN, USA) was used for quantitative determination of adiponectin in the cell culture supernatants.
Figure S56. PPARγ binding and adiponectin secretion -promoting activities of herqueinone compounds purified from Penicillium herquei. (A) TR-FRET based competitive PPARγ binding assays were performed for herqueinone compounds 1-11. (B) Ki values for compounds 1, 3, 4, 7, 8 and 9 were calculated based on the Cheng and Prusoff analysis. (C) Herqueinone compounds were added to the IDX condition when adipogenesis was induced in hBM-MSCs. On the fifth day, the cell culture supernatants were harvested.
ELISA was performed to measure the level of adiponectin. Positive controls were pioglitazone and aspirin.
(D) The concentration dependency of herqueinone compounds 1, and 9 on adiponectin secretion-promoting activity was determined. Values represent means ± SD (n=3); * p ≤ 0.05 and ** p ≤ 0.01.
(1 picture or pasted object on this page, not shown here)

Where [1] appears, read: Mus musculus, RAW264.7, LPS 1 μg/mL.
The mark [2] stands for this setting: IDX conditions, read-out: IC50 values, adiponectin secretion-promoting effects.
The mark [3] stands for this setting: adiponectin secretion, Table S1, read-out: EC50 hBM-MSC(B7).

SMILES strings stand for the structures. Where two headings read alike, the source gives them in different places.

For the compound `CC(=O)CC1(O)C(=O)C2=c3c(c(O)cc(C)c3=C3O[C@H](C)C(C)(C)[C@]3(O)C2=O)C1=O` (single isomer, unassigned) [Compound 4, Oxopropylisoherqueinone A], the concentration for half-maximal inhibition (IC50) in the series with HUVECs (Homo sapiens, HUVEC) was greater than 40 µM; in “cytotoxicity assay, K562”, greater than 10 µM; in “cytotoxicity assay, A549”, greater than 10 µM; with RAW 264.7 cells (setting [1]) it was greater than 20 µM.
Take `CC1CCN=C(N)S1` (stereo not shown) [AMT, reference compound]: the IC50 in the series with RAW 264.7 cells (LPS 1 μg/mL) worked out at 0.2 µM.
Consider `COc1c(O)c2c3c(c1O)C(=O)[C@@]1(O)C(=C3C(C)=C(O)C2=O)O[C@@H](C)C1(C)C` [Compound 1, ent-Peniciherqueinone], for which the concentration for half-maximal inhibition (IC50) is greater than 40 µM in the series with HUVECs (Homo sapiens, HUVEC); greater than 10 µM in the series “cytotoxicity assay, K562”; greater than 10 µM in “cytotoxicity assay, A549”; greater than 20 µM with RAW 264.7 cells (setting [1]). In addition, the EC50 in the series with hBM-MSCs (setting [2]) and in the series on hBM-MSCs (setting [3]) was 57.5 µM throughout.
Regarding `CC1=C(O)C(=O)c2c(O)c(O)c(O)c3c2C1=C1O[C@@H](C)C(C)(C)[C@@]1(O)C3=O` [Compound 2, 12-Hydroxynorherqueinone], the IC50 in the series with HUVECs (Homo sapiens, HUVEC) was greater than 40 µM; in “cytotoxicity assay, K562”, greater than 10 µM; in the series “cytotoxicity assay, A549”, greater than 10 µM; in the series with RAW 264.7 cells (setting [1]), greater than 20 µM.
Regarding `COc1c(O)c2c3c(c1O)C(=O)[C@]1(O)C(=C3C(C)=CC2=O)O[C@H](C)C1(C)C` [Compound 3, ent-Isoherqueinone], the half-inhibitory concentration (IC50) is greater than 40 µM with HUVECs (Homo sapiens, HUVEC); greater than 10 µM in “cytotoxicity assay, K562”; greater than 10 µM in the series “cytotoxicity assay, A549”; greater than 20 µM in the series with RAW 264.7 cells (setting [1]).
Take `CC(=O)CC1(O)C(=O)C2=c3c(c(O)cc(C)c3=C3O[C@H](C)C(C)(C)[C@]3(O)C2=O)C1=O` (stereo partly shown) [Compound 5, Oxopropylisoherqueinone B]: the 50% inhibitory concentration (IC50) in the series on HUVECs was greater than 40 µM; in the series on RAW 264.7 cells (LPS 1 μg/mL), greater than 20 µM.
Turning to `Cc1cc(O)c2c3c1=C1O[C@@H](C)C(C)(C)[C@@]1(O)C(=O)C=3C(=O)OC2=O` [Compound 6, 4-Hydroxysclerodin], the half-inhibitory concentration (IC50) was 20.9 µM with HUVECs (Homo sapiens, HUVEC); greater than 10 µM in “cytotoxicity assay, K562”; greater than 10 µM in the series “cytotoxicity assay, A549”; greater than 20 µM with RAW 264.7 cells (setting [1]).
Regarding `CC(=O)CC1(O)C(=O)c2c(O)cc(C)c3c4c(c(O)c(c23)C1=O)C(C)(C)[C@@H](C)O4` (stereo partly shown) [Compound 7, acetone adduct of the triketone], the IC50 with HUVECs (Homo sapiens, HUVEC) was greater than 40 µM; in “cytotoxicity assay, K562”, greater than 10 µM; in the series “cytotoxicity assay, A549” it was greater than 10 µM; in the series with RAW 264.7 cells (setting [1]), 3.2 µM.
On to `COc1c(O)c2c3c(c1O)C(=O)[C@@]1(O)C(=C3C(C)=CC2=O)O[C@H](C)C1(C)C` [Compound 8, herqueinone], for which the IC50 in the series with HUVECs (Homo sapiens, HUVEC) is greater than 40 µM; in the series “cytotoxicity assay, K562”, greater than 10 µM; in “cytotoxicity assay, A549”, greater than 10 µM; in the series with RAW 264.7 cells (setting [1]) it was greater than 20 µM.
`COc1c(O)c2c3c(c1O)C(=O)[C@@]1(O)C(=C3C(C)=CC2=O)O[C@@H](C)C1(C)C` [Compound 9, isoherqueinone]: the IC50 was greater than 40 µM in the series on HUVECs (Homo sapiens, HUVEC); greater than 10 µM in the series “cytotoxicity assay, K562”; greater than 10 µM in “cytotoxicity assay, A549”; greater than 20 µM in the series with RAW 264.7 cells (setting [1]). For the same compound, the EC50 in the series on hBM-MSCs (setting [2]) and in the series on hBM-MSCs (setting [3]) was 39.7 µM each time.
Consider `Cc1cc(O)c2c3c(c(O)c4c(c13)O[C@@H](C)C4(C)C)C(=O)OC2=O` [Compound 10, sclerodin], for which the half-inhibitory concentration (IC50) was greater than 40 µM with HUVECs (Homo sapiens, HUVEC); greater than 10 µM in “cytotoxicity assay, K562”; greater than 10 µM in the series “cytotoxicity assay, A549”; greater than 20 µM in the series with RAW 264.7 cells (setting [1]).
With `Cc1cc(O)c2c3c(c(O)c4c(c13)O[C@@H](C)C4(C)C)C(=O)C(=O)O2` [Compound 11, scleroderolide], the half-maximal inhibitory concentration (IC50) with HUVECs (Homo sapiens, HUVEC) was greater than 40 µM; in the series “cytotoxicity assay, K562” it was greater than 10 µM; in the series “cytotoxicity assay, A549” it was greater than 10 µM; in the series on RAW 264.7 cells (setting [1]), greater than 20 µM.
`CCc1ccc(CCOc2ccc(CC3SC(=O)NC3=O)cc2)nc1` (stereo not shown) [Pioglitazone, pioglitazone, reference compound]: the EC50 in the series with hBM-MSCs (setting [3]) worked out at 0.69 µM.
On to `CCN(CC)CCNC(=O)c1c(C)[nH]c(/C=C2\C(=O)Nc3ccc(F)cc32)c1C` [Sunitinib, reference compound], for which the IC50 in the series with HUVECs (Homo sapiens, HUVEC) was determined as 1.5 µM.
